According to ChEMBL document CHEMBL1127664, “Second-generation benzodiazepine CCK-B antagonists. Development of subnanomolar analogs with selectivity and water solubility” (J Med Chem, 1994):
Values after ≈ are worked out from the molar mass of the structure shown.

Tests used:
[1] = molecular target: T1, Cholecystokinin receptor type A (Rattus norvegicus, UniProt P30551); assay: The compound was tested for binding activity against Cholecystokinin type A receptor from rat pancreas using [125]BH CCK-8s as radioligand.
T1 sequence (P30551 whole entry): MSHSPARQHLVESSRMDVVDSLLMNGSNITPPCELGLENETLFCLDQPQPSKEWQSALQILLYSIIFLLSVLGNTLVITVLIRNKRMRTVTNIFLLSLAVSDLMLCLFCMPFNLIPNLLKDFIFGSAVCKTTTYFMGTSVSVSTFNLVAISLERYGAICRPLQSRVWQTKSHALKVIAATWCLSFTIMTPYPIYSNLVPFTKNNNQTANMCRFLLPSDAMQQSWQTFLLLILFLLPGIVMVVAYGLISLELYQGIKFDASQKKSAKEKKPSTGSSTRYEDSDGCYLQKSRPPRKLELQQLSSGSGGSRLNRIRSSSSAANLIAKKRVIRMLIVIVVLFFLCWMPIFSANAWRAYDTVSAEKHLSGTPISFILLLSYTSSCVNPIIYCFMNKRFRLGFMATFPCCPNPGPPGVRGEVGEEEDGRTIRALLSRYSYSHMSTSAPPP

[2] = Equilibrium solubility determined after stirring the compound in buffered solution for more than 5 hours at pH 7.4; format: ADME
[3] = molecular target: T1, Cholecystokinin receptor type A; assay: The compound was tested for binding activity against Cholecystokinin type A receptor from rat pancreatic tissue using [125]BH CCK-A as radioligand
[4] = Equilibrium solubility determined after stirring the compound in buffered solution for more than 5 hours at pH 8.00; format: ADME
[5] = Equilibrium solubility determined after stirring the compound in buffered solution for more than 5 hours at pH 7; format: ADME
[6] = Equilibrium solubility determined after stirring the compound in buffered solution for more than 5 hours at pH 8.0; format: ADME

For `Cc1ccc(NC(=O)N[C@H]2N=C(c3ccccc3)c3ccccc3N(C)C2=O)cc1`, the IC50 [1] was 736 nM and the solubility thermodynamic at 5 h [2] was greater than 2 µg/mL.

In the case of `CN1C(=O)[C@H](NC(=O)Nc2ccc(-c3nc(=O)o[nH]3)cc2)N=C(c2ccccc2)c2ccccc21`, the IC50 [1] is reported as 15.4 nM.

For `CC(C)CN1C(=O)[C@@H](NC(=O)Nc2ccc(-c3nn[nH]n3)cc2)N=C(c2ccccc2)c2ccccc21`, the IC50 [3] was 1430 nM, the solubility thermodynamic at 5 h [4] was greater than 11000 µg/mL and the solubility thermodynamic at 5 h [5] was 1400 µg/mL (≈ 2.83 mM).

`CN1C(=O)[C@@H](NC(=O)Nc2ccc(-c3nnn[nH]3)cc2)N=C(c2ccccc2)c2ccccc21` showed an IC50 [3] of 577 nM and a solubility thermodynamic at 5 h [2] of 3740 µg/mL (≈ 8.27 mM).

Compound `CN1C(=O)[C@@H](NC(=O)Nc2ccc(-c3noc(O)n3)cc2)N=C(c2ccccc2)c2ccccc21` has an IC50 [1] of 983 nM, a solubility thermodynamic at 5 h [2] of 410 µg/mL (≈ 0.875 mM) and a solubility thermodynamic at 5 h [6] of 1660 µg/mL (≈ 3.54 mM).

Work on `CC(C)CN1C(=O)[C@H](NC(=O)Nc2ccc(-c3nnn[nH]3)cc2)N=C(c2ccccc2)c2ccccc21` yielded an IC50 [1] of 379 nM.

In the case of `CN1C(=O)[C@H](NC(=O)Nc2ccc(-c3nn[nH]n3)cc2)N=C(c2ccccc2)c2ccccc21`, the IC50 [1] is reported as 6.16 nM.

With `CN1C(=O)C(NC(=O)Nc2ccc(C(=O)O)cc2)N=C(c2ccccc2)c2ccccc21` (single isomer, unassigned) the IC50 [1] was 1550 nM and the solubility thermodynamic at 5 h [2] was 4700 µg/mL (≈ 11 mM).
